Experimental findings from patent US7781479B2, “Heteroaryl derivatives” (Dainippon Sumitomo Pharma Co., Ltd., priority 2005, dated 2010) are described below.

Experiment [1] concerns the target T1, human PPARγ ligand binding domain fused to GAL4 DNA binding domain (Homo sapiens, UniProt P37231).
T1 construct: human PPARγ (including amino acids residue 204-505); expressed in transfected cells; host or cells: COS-1 cells
T1 sequence (P37231 204-505): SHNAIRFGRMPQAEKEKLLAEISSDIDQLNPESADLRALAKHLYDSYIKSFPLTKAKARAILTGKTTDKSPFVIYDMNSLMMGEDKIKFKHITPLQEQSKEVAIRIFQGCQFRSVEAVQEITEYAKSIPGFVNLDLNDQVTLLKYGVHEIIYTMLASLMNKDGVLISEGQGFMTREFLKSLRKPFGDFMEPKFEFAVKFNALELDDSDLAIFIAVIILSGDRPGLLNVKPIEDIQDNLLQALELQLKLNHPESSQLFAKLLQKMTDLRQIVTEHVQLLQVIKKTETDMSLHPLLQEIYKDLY
Kind of experiment: GAL4-PPARγ luciferase reporter assay in COS-1 cells. Format: cell-based. The following applies: for Emax: maximum PPARγ-agonistic activity per the maximum PPARγ-agonistic activity (100%) of pioglitazone. An excerpt:
(§1) Evaluation of PPAR α or γ Agonistic Activity
(§2) Construction of Reporter Plasmid
(§3) By inserting a gene fragment encoding the ligand binding domain of human PPARα (including amino acid residues 167-468) or a gene fragment encoding the ligand binding domain of human PPARγ (including amino acids residue 204-505) into a multicloning site of expressing vector pM containing DNA binding domain of yeast GAL4 protein (Clonetech), a vector plasmid for expressing a fused protein of GAL4 protein DNA binding domain and human PPARα or γ ligand binding domain was obtained.
(§4) As a reporter plasmid, pGL3-Basic Vector containing firefly luciferase gene (Promega Corporation) was used wherein Gal 4-responsive sequence UAS and rabbit β-globin promoter were inserted.
(§5) For the correction of transformation efficiency, a plasmid pβgal control (Clonetech) containing lacZ gene, was used.
COS-1 cells were cultured in the phenol red free Dulbecco's Modified Eagles Medium (DMEM) (Gibco) supplemented with 5% activated charcoal/dextran stripped fetal bovine serum at 37° C. with 5% carbon dioxide. The COS-1 cells were plated at a concentration of 5×10^4 cells/well into a 24-well plate, and were incubated overnight. The medium was replaced with a fresh medium supplemented […] 5% activated charcoal/dextran treated fetal bovine serum. Further, the cells were transfected using Lipofectamine plus reagent (Gibco) with plasmids GAL4-PPARα- or γ-expressing plasmid (5 ng), the reporter plasmid (50 ng), and pβgal control (350 ng) per well. After incubation for 4 hours, the medium was changed with a fresh medium supplemented with 5% activated charcoal/dextran treated fetal bovine serum. Then, the compound of the present invention was added thereto in such an amount that the final concentration thereof is 0.1 μM, 0.3 μM, 1 μM, 3 μM or 10 μM. After the cultivation for 24 hours, the cells were lysed with a solution for cell lysis accompanied to the Luciferase Assay System (Promega Corporation). The luciferase activity therein was measured by a luminometer using the reagent for measuring luciferase which was also accompanied to said System.
The PPARα- or γ-agonistic activity was expressed as a relative activity where the luciferase activity in the well to which the vehicle (DMSO) was added as control was regarded as 1. The PPARα-agonistic activity and the PPARγ-agonistic activity at each 10 μM, and the maximum PPARγ-agonistic activity (%) of the compound of the present invention per the maximum PPARγ-agonistic activity (100%) of pioglitazone are shown in the following Table 1.

The subject of the next experiment is male db/db mice. Kind of experiment: Hypoglycemic activity in db/db mice (blood glucose level). Format: in vivo. The following applies: 30 mg/kg orally once a day for 2 weeks, blood glucose level on the last day. As to the method: The test compounds as disclosed in Examples were dissolved or suspended in a 0.5% carbomethyl cellulose solution, and orally administered to male db/db mice (7 to 8 weeks old) at a final dose of 30 mg/kg once a day for 2 weeks. On the last day, the blood was taken at the tail vein, and immediately thereafter, perchloric acid was added for removing proteins, and the blood glucose level was measured by Glucolse CII Test Wako (Wako Pure Industries, Ltd.).
The hypoglycemic activity was calculated by the following equation.

Experiment [2] has as its target T2, human PPARα ligand binding domain fused to GAL4 DNA binding domain (Homo sapiens, UniProt Q07869).
T2 construct: human PPARα (including amino acid residues 167-468); expressed in transfected cells; host or cells: COS-1 cells
T2 sequence (Q07869 167-468): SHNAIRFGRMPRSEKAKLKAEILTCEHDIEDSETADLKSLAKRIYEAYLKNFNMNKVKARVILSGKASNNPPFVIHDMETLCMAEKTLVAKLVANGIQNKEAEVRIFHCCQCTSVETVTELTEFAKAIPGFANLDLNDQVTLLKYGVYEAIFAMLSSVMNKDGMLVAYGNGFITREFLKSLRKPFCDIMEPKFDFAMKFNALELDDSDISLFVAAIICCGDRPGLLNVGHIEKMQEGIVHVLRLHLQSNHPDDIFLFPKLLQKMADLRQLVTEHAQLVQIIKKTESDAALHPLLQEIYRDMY
The experiment can be described thus: GAL4-PPARα luciferase reporter assay in COS-1 cells. The following applies: relative luciferase activity, vehicle (DMSO) control regarded as 1, 24 hours. Format: cell-based.
Text: as §1, §2, §3, §4, §5
COS-1 cells were cultured in the phenol red free Dulbecco's Modified Eagles Medium (DMEM) (Gibco) supplemented with 5% activated charcoal/dextran stripped fetal bovine serum at 37° C. with 5% carbon dioxide. […] The luciferase activity therein was measured by a luminometer using the reagent for measuring luciferase which was also accompanied to said System.
The PPARα- or γ-agonistic activity was expressed as a relative activity where the luciferase activity in the well to which the vehicle (DMSO) was added as control was regarded as 1. […]

In the case of `Cc1ccc(C(=O)c2cccn2C/C=C\c2ccc(COC(C)(C)C(=O)O)cc2)cc1` [Compound 1], the Emax in experiment [1] came out at 51%.
Still for that read-out and setting: the same measure for `Cc1ccc(C(=O)c2c(C)n(C/C=C/c3ccc(COC(C)(C)C(=O)O)cc3)c3ncccc23)cc1` [Compound 20]: 68%.
On the same count and under the same terms, the same measure for `Cc1ccc(C(=O)c2ccn(C/C=C/c3ccc(CO[C@H](C)C(=O)O)cc3)n2)cc1` [Compound 21]: 71%; for `Cc1ccc(C(=O)c2nn(C/C=C/c3ccc(COC(C)(C)C(=O)O)cc3)c3ccccc23)cc1` [Compound 35]: 57%.
In experiment [1], `COc1ccc2c(C(=O)c3ccc(C)cc3)c(C)n(Cc3ccc(CO[C@H](C)C(=O)O)cc3)c2c1` [Compound 46] showed an Emax of 26%.
In experiment [1], `COc1ccc2c(C(=O)c3ccc(C)cc3)c(C)n(Cc3cccc(CO[C@H](C)C(=O)O)c3)c2c1` [Compound 54] registered an Emax of 39%.
Still for that read-out and setting: the same measure for `Cc1ccc(C(=O)c2c(C)n(Cc3cccc(CO[C@H](C)C(=O)O)c3)c3ncccc23)cc1` [Compound 59]: 41%.
Still for that read-out and setting: with `Cc1ccc(C(=O)c2cccn2Cc2ccc(/C=C/CO[C@H](C)C(=O)O)cc2)cc1` [Compound 68] the figure was 71%.
On to `Cc1ccc(C(=O)c2c(C)n(Cc3ccc(/C=C/COC(C)(C)C(=O)O)cc3)c3ccccc23)cc1` [Compound 79], for which, in experiment [1], the Emax was found to be 35%.
With `COc1ccc2c(C(=O)c3ccc(C)cc3)c(C)n(Cc3ccc(/C=C/COC(C)(C)C(=O)O)cc3)c2c1` [Compound 81], in experiment [1], the Emax was 42%.
`Cc1ccc(C(=O)c2c(C)c3ccc(C(F)(F)F)cc3n2Cc2ccc(/C=C/COC(C)(C)C(=O)O)cc2)cc1` [Compound 83] showed an Emax in experiment [1] of 13%.
Take `Cc1ccc(C(=O)c2c(C)n(C/C=C/c3ccc(COC(C)(C)C(=O)O)cc3)c3ncccc23)cc1` [Example 20, 2-Methyl-2-[(4-{(1E)-3-[2-Methyl-3-(4-methylbenzoyl)-1H-pyrrolo[2,3-b]pyridin-1-yl]prop-1-en-1-yl}benzyl)oxy]propionic acid]: the “Hypoglycemic Activity (%)” value in the experiment on male db/db mice is 50.4%.
With `Cc1ccc(C(=O)c2nn(/C=C/c3ccc(CO[C@H](C)C(=O)O)cc3)c3ccccc23)cc1` [Example 34, (2R)-2-[(4-{(E)-2-[3-(4-Methylbenzoyl)-1H-indazol-1-yl]vinyl}benzyl)oxy]propanoic acid], in the experiment on male db/db mice, the “Hypoglycemic Activity (%)” value was found to be 47.4%.
Still for that read-out and setting: with `Cc1ccc(C(=O)c2nn(C/C=C/c3ccc(COC(C)(C)C(=O)O)cc3)c3ccccc23)cc1` [Example 35, 2-Methyl-2-[(4-{(1E)-3-[3-(4-methylbenzoyl)-1H-indazol-1-yl]prop-1-en-1-yl}benzyl)oxy]propanoic acid] the figure was 27.3%; with `COc1ccc2c(C(=O)c3ccc(C)cc3)c(C)n(Cc3cccc(CO[C@H](C)C(=O)O)c3)c2c1` [Example 54, (2R)-2-[(3-{[6-Methoxy-2-methyl-3-(4-methylbenzoyl)-1H-indol-1-yl]methyl-}benzyl)oxy]propionic acid], 47.7%.
For the compound `Cc1ccc(C(=O)c2c(C)n(-c3ccc(COC4(C(=O)O)CCC4)cc3)c3ccccc23)cc1` [Example 86, 1-({4-[2-Methyl-3-(4-methylbenzoyl)-1H-indol-1-yl]benzyl}oxy)cyclobutane carboxylic acid], the “PPARγ-agonistic activity (10 μM)” value in experiment [1] (10 μM, relative luciferase activity, vehicle (DMSO) control regarded as 1, 24 hours) came to 2.8. In addition, in experiment [1], the Emax was determined as 20%. Further, the “PPARα-agonistic activity (10 μM)” value in experiment [2] is reported as 1.3.
